How the values were obtained:
Type in all cases: biochemical
[1] = test system: epoxide hydrolase from Agrobacterium radiobacter AD1, wild type, SEQ ID No. 1; assay: Stereoselective hydrolysis (kinetic resolution) of styrene oxides, comparative experiment with wild type enzyme; details: substrate 5 mM, Tris buffer 50 mM pH9, 30°C, 10% DMSO for meta- and para-chlorostyrene oxide, chiral GLC
Description: (§1) A screw-cap bottle containing 30 ml Tris buffer^1 (50 mM pH9) was incubated in a shaking waterbath at 30°C. Styrene oxides (SO) as indicated in table 3 were added to a final concentration of 5 mM. The reaction was started by the addition of the a purified enzyme solution of the Tyr215Phe mutant of the epoxide hydrolase from Agrobacterium radiobacter AD1. The kinetic resolution was monitored by periodically taking 1 ml samples (with a 1 ml syringe) from the closed screw-cap bottle. The samples were extracted with diethylether containing 20 mM mesitylene as an internal standard. Prior to analysis by chiral GLC the water was removed from the sample by passing it through a short column containing MgSO4. The enantiomeric excess (%ee) and the yield of the epoxides was determined with a Hewlett-Packard 5890 gas chromatograph equipped with a FID-detector, using a Chiraldex G-TA capillary column, of 50 m lenght and 0.25 mm inside diameter. The data from the chiral GLC are as follows: • styrene oxide, tr(S)=12.4 min and tr(R)=14.8 min at 110°C; • meta-chlorostyrene oxide, tr(S)=20.2 min and tr(R)= 31.1 min at 120°C; • para-chlorostyrene oxide, tr(S)=40.7 min and tr(R)= 43.0 min at 100°C. ^1 In case of meta-chlorostyrene oxide and para-chlorostyrene oxide the buffer also contained 10% DMSO
Example III was repeated using the corresponding wild type epoxide hydrolase for Agrobacterium radiobacter AD1.

[2] = test system: epoxide hydrolase from Agrobacterium radiobacter AD1, Tyr215Phe mutant; assay: Stereoselective hydrolysis (kinetic resolution) of styrene oxides with Tyr215Phe mutant; details: substrate 5 mM, Tris buffer 50 mM pH9, 30°C, 10% DMSO for meta- and para-chlorostyrene oxide, chiral GLC
Description: Site directed mutagenesis was done as described by Kunkel (Proc. Natl. Acad. Sci. U.S.A., 82, 488-492 (1985)) with uracil-containing single stranded plasmid pEH20 as template (Rink et al.). Tyr^215 was mutated to Phe with the primer 5'-[…]-3' (mutated codon underlined). In order to confirm the mutation, the whole gene was sequenced as described in Rink et al.
as §1

[3] = test system: epoxide hydrolase from Agrobacterium radiobacter AD1, Tyr152Phe mutant; assay: Stereoselective hydrolysis (kinetic resolution) of racemic styrene oxide with Tyr152Phe mutant; details: as Example III (5 mM, Tris buffer 50 mM pH9, 30°C)

O=[N+]([O-])c1ccc(C2CO2)cc1 (racemic) [P-NO2-SO]
E-value [1]: 100
E-value [2]: > 200

c1ccc(C2CO2)cc1 (racemic) [SO, styrene oxide]
E-value [1]: 16
E-value [3]: ≥ 40
E-value [2]: 30

Clc1cccc(C2CO2)c1 (stereo not drawn) [M-Cl-SO, meta-chlorostyrene oxide]
E-value [1]: 6.5
E-value [2]: 13

Clc1ccc(C2CO2)cc1 (stereo not drawn) [P-Cl-SO, para-chlorostyrene oxide]
E-value [1]: 32
E-value [2]: 130
